Assay results as given in US20240217951A1, “PCSK9 INHIBITORS AND METHODS OF USE THEREOF” (AstraZeneca AB, priority 2022, published 2024).

Experiments:
[1] = biological target: GSK3β (Glycogen synthase kinase-3 beta) (Homo sapiens, UniProt P49841); assay: Assay 6 - GSK3β assay (ThermoFisher Z-Lyte); type: biochemical; settings: geometric mean; ATP Conc: 10 μM; read-out: Assay 6 (GSK3β FRET-Z-Lyte CR) GMean IC50 (μM) ATP Conc: 10
Protocol: Assay 6—GSK3β Assay (ThermoFisher Assay)
This assay measures the activity of the compounds at GSK3β (Glycogen synthase kinase-3 beta).
The test compounds were screened in 1% DMSO (final) in the well. For 10 point titrations, 3-fold serial dilutions are conducted from the starting concentration of 10 μM.
Bar-coded Corning, low volume NBS, black 384-well plate • 1. 2.5 μL—4× Test Compound or 100 nL 100× plus 2.4 μL kinase buffer • 2. 5 μL—2× Peptide/Kinase Mixture • 3. 2.5 μL—4×ATP Solution • 4. 30-second plate shake • 5. 60-minute Kinase Reaction incubation at room temperature • 6. 5 μL—Development Reagent Solution • 7. 30-second plate shake • 8. 60-minute Development Reaction incubation at room temperature • 9. Read on fluorescence plate reader and analyse the data
In step 2, the 2×GSK3β (GSK3 beta)/Ser/Thr (Glycogen synthase kinase-3 beta/Serine/Threonine) 09 mixture is prepared in 50 mM HEPES (4-(2-hydroxyethyl)-1-piperazineethanesulfonic acid) pH 7.5, 0.01% BRIJ-35, 10 mM MgCl2, 1 mM EGTA (egtazic acid). The final 10 μL Kinase Reaction consists of 0.22-0.92 ng GSK3β (GSK3 beta) and 2 μM Ser/Thr 09 in 50 mM HEPES pH 7.5, 0.01% BRIJ-35, 10 mM MgCl2, 1 mM EGTA.
In step 3 the ATP Solution is diluted to a 4× working concentration in Kinase Buffer (50 mM HEPES pH 7.5, 0.01% BRIJ-35, 10 mM MgCl2, 1 mM EGTA).
In Step 6 the Development Reagent is diluted 1:512 in Development Buffer (10× Novel PKC Lipid Mix: 2 mg/mL Phosphatidyl Serine, 0.2 mg/mL DAG in 20 mM HEPES, pH 7.4, 0.3% CHAPS).
SelectScreen® Kinase Profiling Service uses XLfit from IDBS. The dose response curve is curve fit to model number 205 (sigmoidal dose-response model).

[2] = biological target: T1, potassium ion channel hERG (human Ether-á-go-go-Related Gene) (Homo sapiens, UniProt Q12809); assay: Assay 5 - hERG assay (SyncroPatch 384PE patch clamp, CHO cells); type: cell-based; settings: geometric mean; CHO cells over-expressing hERG; read-out: Assay 5 (hERG Hu CHO IF EPh CR-Syncro) GMean IC50
T1 construct: expressed in transfected cells; host or cells: Chinese hamster ovary K1 (CHO)
Protocol: Assay 5—hERG Assay (Human Ether-á-go-go-Related Gene)
This assay (human Ether-á-go-go-Related Gene) measures activity of the compounds at the potassium ion channel hERG (human Ether-á-go-go-Related Gene).
Experiments were performed on the SyncroPatch 384PE high throughput patch clamp platform at room temperature and medium resistance chips with 4 patch holes per site. Chinese hamster ovary K1 (CHO) cell lines over-expressing the ion channel of choice (hERG) were used in assay-ready format and kept in liquid nitrogen or were used from live culture. Cells were either thawed and diluted in HBSS or were detached from flasks and resuspended in HBSS. HBSS comprised 140 mM NaCl, 4 mM KCl, 10 mM HEPES and 5 mM Glucose (pH7.4). The internal patch clamp solution was KF 120 mM, KCl 20 mM, HEPES 10 mM, EGTA 10 mM, and 25 PM Escin (pH 7.2). After the sealing process was complete, the external solution was exchanged for external patch clamp solution comprising NaCl 80 mM, KCl 4 mM, HEPES 10 mM, CaCl2 2 mM, MgCl2 1 mM, glucose 5 mM, and NMDG 60 mM (pH 7.4). All solutions were stored at room temperature, except Escin, which was stored at 4° C. All test compounds were dispensed in greiner-bio 384 well plates and tested in a 6 point cumulative assay (final DMSO concentration 0.33%). Only wells that passed previously agreed acceptance criteria for this platform were used in this analysis (30 MegaOhm seal resistance, Z prime >0.4 and current size >0.2 nA).

PCSK9 = PCSK9 (Homo sapiens, UniProt Q8NBP7, G670E/V474I); assay: biochemical
Chain of PCSK9 (Q8NBP7 with tags, fused parts or gaps V474I/G670E): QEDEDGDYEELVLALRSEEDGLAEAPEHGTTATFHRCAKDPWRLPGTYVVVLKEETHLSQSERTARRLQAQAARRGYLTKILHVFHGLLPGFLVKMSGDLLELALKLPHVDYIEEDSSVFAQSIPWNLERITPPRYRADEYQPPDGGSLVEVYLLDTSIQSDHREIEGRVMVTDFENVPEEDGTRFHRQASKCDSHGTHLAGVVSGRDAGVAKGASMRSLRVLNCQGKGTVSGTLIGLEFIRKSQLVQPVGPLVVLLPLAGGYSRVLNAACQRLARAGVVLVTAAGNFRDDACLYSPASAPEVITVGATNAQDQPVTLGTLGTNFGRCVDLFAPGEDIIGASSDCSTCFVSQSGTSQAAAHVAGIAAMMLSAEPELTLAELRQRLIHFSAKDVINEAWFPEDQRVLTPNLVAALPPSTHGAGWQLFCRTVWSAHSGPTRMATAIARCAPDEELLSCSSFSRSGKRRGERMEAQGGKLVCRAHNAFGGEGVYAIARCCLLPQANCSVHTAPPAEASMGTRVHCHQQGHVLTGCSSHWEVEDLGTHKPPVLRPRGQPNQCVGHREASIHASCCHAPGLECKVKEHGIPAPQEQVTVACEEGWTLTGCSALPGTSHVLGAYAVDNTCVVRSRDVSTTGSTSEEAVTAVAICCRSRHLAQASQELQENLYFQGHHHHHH

T1 sequence (Q12809 whole entry): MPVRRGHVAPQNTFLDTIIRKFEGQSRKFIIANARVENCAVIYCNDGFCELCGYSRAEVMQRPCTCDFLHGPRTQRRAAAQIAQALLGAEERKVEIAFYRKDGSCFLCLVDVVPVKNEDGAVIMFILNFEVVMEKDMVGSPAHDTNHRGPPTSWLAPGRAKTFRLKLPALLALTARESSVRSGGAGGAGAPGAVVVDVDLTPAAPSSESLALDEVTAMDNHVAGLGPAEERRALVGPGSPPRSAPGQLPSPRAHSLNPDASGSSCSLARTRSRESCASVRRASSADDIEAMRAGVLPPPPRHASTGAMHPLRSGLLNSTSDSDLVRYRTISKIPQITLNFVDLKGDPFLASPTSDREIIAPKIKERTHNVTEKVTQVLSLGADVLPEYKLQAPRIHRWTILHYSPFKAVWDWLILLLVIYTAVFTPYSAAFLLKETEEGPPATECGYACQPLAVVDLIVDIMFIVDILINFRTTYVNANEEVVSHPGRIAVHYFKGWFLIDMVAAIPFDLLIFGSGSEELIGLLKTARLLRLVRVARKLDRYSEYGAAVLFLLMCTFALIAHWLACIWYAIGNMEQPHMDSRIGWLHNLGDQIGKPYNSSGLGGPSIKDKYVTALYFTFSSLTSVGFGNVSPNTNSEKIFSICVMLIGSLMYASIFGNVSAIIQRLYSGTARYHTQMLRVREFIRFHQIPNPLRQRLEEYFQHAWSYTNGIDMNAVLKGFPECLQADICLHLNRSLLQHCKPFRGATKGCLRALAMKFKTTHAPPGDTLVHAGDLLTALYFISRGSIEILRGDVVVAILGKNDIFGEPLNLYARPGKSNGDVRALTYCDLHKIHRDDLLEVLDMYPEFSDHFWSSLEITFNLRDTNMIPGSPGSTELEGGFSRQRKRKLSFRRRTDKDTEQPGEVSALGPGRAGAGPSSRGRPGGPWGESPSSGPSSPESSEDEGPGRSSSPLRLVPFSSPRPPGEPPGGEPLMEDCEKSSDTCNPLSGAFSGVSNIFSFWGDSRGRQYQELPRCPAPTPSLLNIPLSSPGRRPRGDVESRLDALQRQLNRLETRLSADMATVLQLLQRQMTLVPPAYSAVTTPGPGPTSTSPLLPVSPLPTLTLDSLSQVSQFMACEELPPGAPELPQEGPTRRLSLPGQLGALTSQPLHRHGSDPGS
Chain of GSK3β (Glycogen synthase kinase-3 beta) (P49841 whole entry): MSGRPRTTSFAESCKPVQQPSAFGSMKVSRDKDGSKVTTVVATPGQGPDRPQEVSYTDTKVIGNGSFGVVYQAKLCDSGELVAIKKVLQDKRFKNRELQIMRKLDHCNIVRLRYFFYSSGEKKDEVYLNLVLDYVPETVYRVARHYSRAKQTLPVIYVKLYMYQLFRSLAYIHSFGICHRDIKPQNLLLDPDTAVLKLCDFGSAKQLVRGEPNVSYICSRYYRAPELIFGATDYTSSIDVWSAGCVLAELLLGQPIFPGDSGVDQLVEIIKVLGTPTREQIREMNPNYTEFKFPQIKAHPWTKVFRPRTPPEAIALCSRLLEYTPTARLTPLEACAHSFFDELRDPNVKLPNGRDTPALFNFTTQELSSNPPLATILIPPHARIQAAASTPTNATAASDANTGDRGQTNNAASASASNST

## Cn1ccc2ncc(N[C@H]3CC[C@H](Nc4ccc(-n5ccccc5=O)cn4)C3)nc21 [Example 8, 6′-(((1S,3S)-3-((5-Methyl-5H-pyrrolo[2,3-b]pyrazin-3-yl)amino)cyclopentyl)amino)-2H-[1,3′-bipyridin]-2-one]
[1]
  IC50: > 10 µM
[2]
  IC50: > 40 µM
PCSK9
  IC50: 0.257 µM

## Cc1cnc(N[C@H]2CC[C@H](Nc3ccc(-n4ccccc4=O)cn3)C2)c(=O)[nH]1 [Example 253, 6′-(((1S,3S)-3-((5-Methyl-3-oxo-3,4-dihydropyrazin-2-yl)amino)cyclopentyl)amino)-2H-[1,3′-bipyridin]-2-one]
[1]
  IC50: > 10 µM
[2]
  IC50: > 40.1 µM
PCSK9
  IC50: 0.307 µM

## CNC(=O)c1cnc(N[C@H]2CC[C@H](Nc3ccc(-n4cccc(OC)c4=O)cn3)C2)cn1 (stereo in doubt) [Example 150, 5-(((1S,3S)-3-((3-Methoxy-2-oxo-2H-[1,3′-bipyridin]-6′-yl)amino)cyclopentyl)amino)-N-methylpyrazine-2-carboxamide]
[1]
  IC50: > 10 µM
[2]
  IC50: > 40.1 µM
PCSK9
  IC50: 8.7 µM

## Cc1nc(N[C@H]2CC[C@H](Nc3ccc(-n4ccccc4=O)cn3)C2)cnc1OC(F)F [Example 91, 6′-(((1S,3S)-3-((5-(Difluoromethoxy)-6-methylpyrazin-2-yl)amino)cyclopentyl)amino)-2H-[1,3′-bipyridin]-2-one]
[1]
  IC50: > 10 µM
[2]
  IC50: 9.6 µM
PCSK9
  IC50: 0.436 µM

## O=c1cccnn1-c1ccc(N[C@H]2CC[C@H](Nc3cnc(Cl)cn3)C2)nc1 [Example 25, 2-(6-(((1S,3S)-3-((5-Chloropyrazin-2-yl)amino)cyclopentyl)amino)pyridin-3-yl)pyridazin-3 (2H)-one]
[1]
  IC50: > 10 µM
[2]
  IC50: > 40 µM
PCSK9
  IC50: 0.028 µM

## COc1ccc(=O)n(-c2ccc(N[C@H]3CC[C@H](Nc4cnc(C)cn4)C3)nc2)c1 [Example 40, 5-Methoxy-6′-(((1S,3S)-3-((5-methylpyrazin-2-yl)amino)cyclopentyl)amino)-2H-[1,3′-bipyridin]-2-one]
[1]
  IC50: 0.192 µM
[2]
  IC50: 35.5 µM
PCSK9
  IC50: 0.067 µM

## Cc1cnc(N[C@H]2CC[C@H](Nc3ccc(-n4nc(Cl)ccc4=O)cn3)C2)cn1 [Example 233, 6-Chloro-2-(6-(((1S,3S)-3-((5-methylpyrazin-2-yl)amino)cyclopentyl)amino)pyridin-3-yl)pyridazin-3 (2H)-one]
[1]
  IC50: > 10 µM
[2]
  IC50: > 40.1 µM
PCSK9
  IC50: 0.024 µM

## CNC(=O)c1cnc(N[C@H]2CC[C@H](Nc3ccc(-n4cccc(Cl)c4=O)cn3)C2)cn1 [Example 149, 5-(((1S,3S)-3-((3-Chloro-2-oxo-2H-[1,3′-bipyridin]-6′-yl)amino)cyclopentyl)amino)-N-methylpyrazine-2-carboxamide]
[1]
  IC50: > 10 µM
[2]
  IC50: > 40.1 µM
PCSK9
  IC50: 3.96 µM

## Cc1ccc(=O)n(-c2ccc(N[C@H]3CC[C@H](Nc4cnc(Cl)cn4)C3)nc2)c1 [Example 30, 6′-(((1S,3S)-3-((5-Chloropyrazin-2-yl)amino)cyclopentyl)amino)-5-methyl-2H-[1,3′-bipyridin]-2-one]
[1]
  IC50: > 10 µM
[2]
  IC50: 32.2 µM
PCSK9
  IC50: 0.027 µM

## COC(=O)CSc1cnc(N[C@H]2CC[C@H](Nc3ccc(-n4ccccc4=O)cn3)C2)cn1 [Example 164, Methyl 2-((5-(((1S,3S)-3-((2-oxo-2H-[1,3′-bipyridin]-6′-yl)amino)cyclopentyl)amino)pyrazin-2-yl)thio)acetate]
[1]
  IC50: > 10 µM
[2]
  IC50: > 40.1 µM
PCSK9
  IC50: 0.451 µM

## COc1ccc(=O)n(-c2ccc(N[C@H]3CC[C@H](Nc4cnc(Cl)cn4)C3)nc2)c1 [Example 28, 6′-(((1S,3S)-3-((5-Chloropyrazin-2-yl)amino)cyclopentyl)amino)-5-methoxy-2H-[1,3′-bipyridin]-2-one]
[1]
  IC50: 0.16 µM
[2]
  IC50: 25 µM
PCSK9
  IC50: 0.043 µM

## COc1ccc(=O)n(-c2ccc(N[C@H]3CC[C@H](Nc4cnc(C)c(C)n4)C3)nc2)c1 [Example 15, 6′-(((1S,3S)-3-((5,6-Dimethylpyrazin-2-yl)amino)cyclopentyl)amino)-5-methoxy-2H-[1,3′-bipyridin]-2-one]
[1]
  IC50: 0.874 µM
[2]
  IC50: > 40 µM
PCSK9
  IC50: 0.118 µM
